Columns and labels:
Type in all cases: cell-based
SARS-CoV-2-Nluc viruses = assay: microbe, parasite or virus in culture; conditions: Severe acute respiratory syndrome coronavirus 2, 48 h; read-out: SARS-CoV2 EC50
[1] = system: RSV-Fluc (Respiratory Syncytial virus strain A2 containing the firefly luciferase reporter); assay: microbe, parasite or virus in culture; conditions: human respiratory syncytial virus, 72 h, NHBE cells, three days
RSV strain A2 = assay: RSV antiviral assay (Hep2), EC50-Hep2/B1-384; conditions: human respiratory syncytial virus, HEp-2, 96 h; Hep2 cells, 4 days, Cell-Titer Glo
in vitro = conditions: human
Description: The cytotoxicity of compounds was determined in A549-hACE2 cells in the following manner. Compounds (200 nL) were spotted onto 384-well Grenier plates prior to seeding 5000 A549-hACE2 cells/well in a volume of 40 μL culture medium. The plates were incubated at 37° C. for 48 hours with 5% CO2. On day 2, 40 μL of CellTiter-Glo (Promega) was added and mixed 5 times.

For `CC(C)C(=O)O[C@H]1[C@@H](OC(=O)C(C)C)[C@](C#N)(c2ccc3c(N)ncnn23)O[C@@H]1COC(=O)[C@@H](N)C(C)C` [Compound 12, (2R,3R,4R,5R)-5-(((L-valyl)oxy)methyl)-2-(4-aminopyrrolo[2,1-f][1,2,4]triazin-7-yl)-2-cyanotetrahydrofuran-3,4-diylbis(2-methylpropanoate)], the EC50 (SARS-CoV-2-Nluc viruses) was 3300 nM, the EC50 [1] was 169 nM and the EC50 (RSV strain A2) was 420 nM. The CC50 at 48 h (in vitro) was over 50000 nM.

For `N#C[C@@]1(c2ccc3c(N)ncnn23)O[C@H](COC(=O)Cc2ccccc2)[C@@H](O)[C@H]1O` [Compound 22, ((2R,3S,4R,5R)-5-(4-aminopyrrolo[2,1-f][1,2,4]triazin-7-yl)-5-cyano-3,4-dihydroxytetrahydrofuran-2-yl)methyl 2-phenylacetate], the EC50 (SARS-CoV-2-Nluc viruses) was 850 nM, the EC50 [1] was 790 nM and the EC50 (RSV strain A2) was 218 nM. The CC50 (in vitro; 48 hours, CellTiter-Glo, read-out: A549-hACE2 CC50) was over 10000 nM.

With `N#C[C@@]1(c2ccc3c(N)ncnn23)O[C@H](COC(=O)C2CCCCCC2)[C@@H](O)[C@H]1O` [Compound 29, ((2R,3S,4R,5R)-5-(4-aminopyrrolo[2,1-f][1,2,4]triazin-7-yl)-5-cyano-3,4-dihydroxytetrahydrofuran-2-yl)methyl cycloheptanecarboxylate] the EC50 (SARS-CoV-2-Nluc viruses) was 300 nM, the EC50 [1] was 2640 nM and the EC50 (RSV strain A2) was 194 nM. For the same molecule, the CC50 at 48 h (in vitro) was 38000 nM.

For `CC(C)(N)C(=O)OC[C@H]1O[C@@](C#N)(c2ccc3c(N)ncnn23)[C@H](O)[C@@H]1O` [Compound 7, ((2R,3S,4R,5R)-5-(4-aminopyrrolo[2,1-f][1,2,4]triazin-7-yl)-5-cyano-3,4-dihydroxytetrahydrofuran-2-yl)methyl 2-amino-2-methylpropanoate], the EC50 (SARS-CoV-2-Nluc viruses) was 3100 nM, the EC50 (RSV strain A2) was 859 nM and the CC50 at 48 h (in vitro) was over 50000 nM.

`CC(C)[C@H](N)C(=O)OC[C@H]1O[C@@](C#N)(c2ccc3c(N)ncnn23)[C@@H]2OC(c3ccccc3)O[C@@H]21` (stereo partly drawn) [Compound 6, ((3aR,4R,6R,6aR)-6-(4-aminopyrrolo[2,1-f][1,2,4]triazin-7-yl)-6-cyano-2-phenyltetrahydrofuro[3,4-d][1,3]dioxol-4-yl)methyl L-valinate] gave an EC50 (SARS-CoV-2-Nluc viruses) of over 10000 nM, an EC50 (RSV strain A2) of 23600 nM and a CC50 at 48 h (in vitro) of over 71200 nM.

Work on `N#C[C@@]1(c2ccc3c(N)ncnn23)O[C@H](CO)[C@H]2OC(c3ccccc3)O[C@H]21` (stereo partly drawn) [Compound 4, (3aR,4R,6R,6aR)-4-(4-aminopyrrolo[2,1-f][1,2,4]triazin-7-yl)-6-(hydroxymethyl)-2-phenyltetrahydrofuro[3,4-d][1,3]dioxole-4-carbonitrile] yielded an EC50 (SARS-CoV-2-Nluc viruses) of over 10000 nM, an EC50 (RSV strain A2) of 26300 nM and a CC50 at 48 h (in vitro) of over 100000 nM.

In the case of `CC(C)[C@@H](N)C(=O)OC[C@H]1O[C@@](C#N)(c2ccc3c(N)ncnn23)[C@H](O)[C@@H]1O` [Compound 9, ((2R,3S,4R,5R)-5-(4-aminopyrrolo[2,1-f][1,2,4]triazin-7-yl)-5-cyano-3,4-dihydroxytetrahydrofuran-2-yl)methyl D-valinate], the EC50 (SARS-CoV-2-Nluc viruses) is reported as 2400 nM, the EC50 (RSV strain A2) is reported as 798 nM and the CC50 at 48 h (in vitro) is reported as over 50000 nM.

For `N#C[C@@]1(c2ccc3c(N)ncnn23)O[C@H](COC(=O)C2CCCC2)[C@@H](O)[C@H]1O` [Compound 28, ((2R,3S,4R,5R)-5-(4-aminopyrrolo[2,1-f][1,2,4]triazin-7-yl)-5-cyano-3,4-dihydroxytetrahydrofuran-2-yl)methyl cyclopentanecarboxylate], the EC50 (SARS-CoV-2-Nluc viruses) was 430 nM, the EC50 [1] was 1800 nM and the EC50 (RSV strain A2) was 268 nM. For the same molecule, the CC50 at 48 h (in vitro) was 40000 nM.

Molecule `CC(=O)OC[C@H]1O[C@@](C#N)(c2ccc3c(N)ncnn23)[C@H](OC(C)=O)[C@@H]1OC(C)=O` [Compound 2, (2R,3R,4R,5R)-5-(acetoxymethyl)-2-(4-aminopyrrolo[2,1-f][1,2,4]triazin-7-yl)-2-cyanotetrahydrofuran-3,4-diyl diacetate] has an EC50 (SARS-CoV-2-Nluc viruses) of 1900 nM, an EC50 [1] of 287 nM and an EC50 (RSV strain A2) of 537 nM. For the same molecule, the CC50 at 48 h (in vitro) was over 50000 nM.

`CC(C)(C)CC(=O)OC[C@H]1O[C@@](C#N)(c2ccc3c(N)ncnn23)[C@H](O)[C@@H]1O` [Compound 21, ((2R,3S,4R,5R)-5-(4-aminopyrrolo[2,1-f][1,2,4]triazin-7-yl)-5-cyano-3,4-dihydroxytetrahydrofuran-2-yl)methyl 3,3-dimethylbutanoate] showed an EC50 (SARS-CoV-2-Nluc viruses) of 11400 nM, an EC50 [1] of 1850 nM and an EC50 (RSV strain A2) of 2280 nM. The CC50 at 48 h (in vitro) was over 10000 nM.

Molecule `N#C[C@@]1(c2ccc3c(N)ncnn23)O[C@H](COC(=O)C2CCC2)[C@@H](O)[C@H]1O` [Compound 26, ((2R,3S,4R,5R)-5-(4-aminopyrrolo[2,1-f][1,2,4]triazin-7-yl)-5-cyano-3,4-dihydroxytetrahydrofuran-2-yl)methyl cyclobutanecarboxylate] has an EC50 (SARS-CoV-2-Nluc viruses) of 1190 nM, an EC50 [1] of 1080 nM and an EC50 (RSV strain A2) of 337 nM. The CC50 at 48 h (in vitro) was over 10000 nM.

`N#C[C@@]1(c2ccc3c(N)ncnn23)O[C@H](COC(=O)C2CCCCC2)[C@@H](O)[C@H]1O` [Compound 17, ((2R,3S,4R,5R)-5-(4-aminopyrrolo[2,1-f][1,2,4]triazin-7-yl)-5-cyano-3,4-dihydroxytetrahydrofuran-2-yl)methyl cyclohexanecarboxylate] showed an EC50 (SARS-CoV-2-Nluc viruses) of 790 nM, an EC50 [1] of 1180 nM and an EC50 (RSV strain A2) of 213 nM. For the same molecule, the CC50 at 48 h (in vitro) was over 10000 nM.

With `CC(C)(C)C(=O)OC[C@H]1O[C@@](C#N)(c2ccc3c(N)ncnn23)[C@H](O)[C@@H]1O` [Compound 32, ((2R,3S,4R,5R)-5-(4-aminopyrrolo[2,1-f][1,2,4]triazin-7-yl)-5-cyano-3,4-dihydroxytetrahydrofuran-2-yl)methyl pivalate] the EC50 (SARS-CoV-2-Nluc viruses) was 2320 nM, the EC50 [1] was 581 nM and the EC50 (RSV strain A2) was 590 nM. For the same molecule, the CC50 at 48 h (in vitro) was over 50000 nM.

Molecule `N#C[C@@]1(c2ccc3c(N)ncnn23)O[C@H](COC(=O)[C@@H](N)Cc2ccccc2)[C@@H](O)[C@H]1O` [Compound 10, ((2R,3S,4R,5R)-5-(4-aminopyrrolo[2,1-f][1,2,4]triazin-7-yl)-5-cyano-3,4-dihydroxytetrahydrofuran-2-yl)methyl L-phenylalaninate] has an EC50 (SARS-CoV-2-Nluc viruses) of 2200 nM, an EC50 (RSV strain A2) of 1200 nM and a CC50 at 48 h (in vitro) of over 100000 nM.

With `CCC(=O)OC[C@H]1O[C@@](C#N)(c2ccc3c(N)ncnn23)[C@H](OC(=O)CC)[C@@H]1OC(=O)CC` [Compound 3, (2R,3R,4R,5R)-2-(4-aminopyrrolo[2,1-f][1,2,4]triazin-7-yl)-2-cyano-5-((propionyloxy)methyl)tetrahydrofuran-3,4-diyl dipropionate] the EC50 (SARS-CoV-2-Nluc viruses) was 3100 nM, the EC50 [1] was 831 nM and the EC50 (RSV strain A2) was 425 nM. It also gave a CC50 at 48 h (in vitro) of over 100000 nM.

`N#C[C@@]1(c2ccc3c(N)ncnn23)O[C@H](COC(=O)C2CC3CCCC3C2)[C@@H](O)[C@H]1O` (stereo partly drawn) [Compound 24, ((2R,3S,4R,5R)-5-(4-aminopyrrolo[2,1-f][1,2,4]triazin-7-yl)-5-cyano-3,4-dihydroxytetrahydrofuran-2-yl)methyl octahydropentalene-2-carboxylate] showed an EC50 (SARS-CoV-2-Nluc viruses) of 800 nM, an EC50 [1] of 801 nM and an EC50 (RSV strain A2) of 185 nM. For the same molecule, the CC50 at 48 h (in vitro) was over 10000 nM.

`CCCC(=O)OC[C@H]1O[C@@](C#N)(c2ccc3c(N)ncnn23)[C@H](O)[C@@H]1O` [Compound 25, ((2R,3S,4R,5R)-5-(4-aminopyrrolo[2,1-f][1,2,4]triazin-7-yl)-5-cyano-3,4-dihydroxytetrahydrofuran-2-yl)methyl butyrate] gave an EC50 (SARS-CoV-2-Nluc viruses) of 1220 nM, an EC50 [1] of 601 nM and an EC50 (RSV strain A2) of 224 nM. For the same molecule, the CC50 at 48 h (in vitro) was over 10000 nM.

With `Cc1ccc(C(=O)OC[C@H]2O[C@@](C#N)(c3ccc4c(N)ncnn34)[C@H](O)[C@@H]2O)cc1` [Compound 23, ((2R,3S,4R,5R)-5-(4-aminopyrrolo[2,1-f][1,2,4]triazin-7-yl)-5-cyano-3,4-dihydroxytetrahydrofuran-2-yl)methyl 4-methylbenzoate] the EC50 (SARS-CoV-2-Nluc viruses) was 1090 nM, the EC50 [1] was 249 nM and the EC50 (RSV strain A2) was 197 nM. The CC50 at 48 h (in vitro) was over 10000 nM.

Molecule `N#C[C@@]1(c2ccc3c(N)ncnn23)O[C@H](COC(=O)C2CC3(CCC3)C2)[C@@H](O)[C@H]1O` [Compound 27, ((2R,3S,4R,5R)-5-(4-aminopyrrolo[2,1-f][1,2,4]triazin-7-yl)-5-cyano-3,4-dihydroxytetrahydrofuran-2-yl)methyl spiro[3.3]heptane-2-carboxylate] has an EC50 (SARS-CoV-2-Nluc viruses) of 560 nM, an EC50 [1] of 1490 nM and an EC50 (RSV strain A2) of 243 nM. For the same molecule, the CC50 at 48 h (in vitro) was over 10000 nM.

Work on `CC(C)C(=O)OC[C@H]1O[C@@](C#N)(c2ccc3c(N)ncnn23)[C@@H]2OC(c3ccccc3)O[C@@H]21` (stereo partly drawn) [Compound 5, ((3aR,4R,6R,6aR)-6-(4-aminopyrrolo[2,1-f][1,2,4]triazin-7-yl)-6-cyano-2-phenyltetrahydrofuro[3,4-d][1,3]dioxol-4-yl)methyl isobutyrate] yielded an EC50 (SARS-CoV-2-Nluc viruses) of over 10000 nM, an EC50 (RSV strain A2) of 13100 nM and a CC50 at 48 h (in vitro) of over 100000 nM.

`N#C[C@@]1(c2ccc3c(N)ncnn23)O[C@H](CO)[C@H]2OC(=O)O[C@H]21` [Compound 13, (3aR,4R,6R,6aR)-4-(4-aminopyrrolo[2,1-f][1,2,4]triazin-7-yl)-6-(hydroxymethyl)-2-oxotetrahydrofuro[3,4-d][1,3]dioxole-4-carbonitrile] gave an EC50 (SARS-CoV-2-Nluc viruses) of 1300 nM, an EC50 (RSV strain A2) of 506 nM and a CC50 at 48 h (in vitro) of over 50000 nM.

For `CC(C)[C@H](N)C(=O)OC[C@H]1O[C@@](C#N)(c2ccc3c(N)ncnn23)[C@H](O)[C@@H]1O` [Compound 8, ((2R,3S,4R,5R)-5-(4-aminopyrrolo[2,1-f][1,2,4]triazin-7-yl)-5-cyano-3,4-dihydroxytetrahydrofuran-2-yl)methyl L-valinate], the EC50 (SARS-CoV-2-Nluc viruses) was 2700 nM, the EC50 [1] was over 5000 nM and the EC50 (RSV strain A2) was 904 nM. For the same molecule, the CC50 at 48 h (in vitro) was over 100000 nM.

Molecule `N#C[C@@]1(c2ccc3c(N)ncnn23)O[C@H](COC(=O)C[C@@H](N)Cc2ccccc2)[C@@H](O)[C@H]1O` [Compound 14, ((2R,3S,4R,5R)-5-(4-aminopyrrolo[2,1-f][1,2,4]triazin-7-yl)-5-cyano-3,4-dihydroxytetrahydrofuran-2-yl)methyl (S)-3-amino-4-phenylbutanoate] has an EC50 (SARS-CoV-2-Nluc viruses) of 2700 nM, an EC50 (RSV strain A2) of 825 nM and a CC50 at 48 h (in vitro) of over 50000 nM.

Source: US11926645B2, “Compounds and methods for treatment of viral infections” (priority 2020, dated 2024)
